# PMC5218480 (PLoS ONE, 2017)
# Tested on: MV-4-11 cells
# Assay: Gene expression microarray analysis (Affymetrix PrimeView) and GSEA
# Type: cell-based, human
# Design: RFU PODN (11730768_x_at) / Fold change /veh PODN (11730768_x_at) / RFU LINC00158 (11744669_a_at) / Fold change /veh LINC00158 (11744669_a_at) / RFU DUSP10 (11751237_a_at) / Fold change /veh DUSP10 (11751237_a_at) / RFU ID3 (11757404_x_at) / Fold change /veh ID3 (11757404_x_at) / RFU PLEKHG5 (11737974_s_at) / Fold change /veh PLEKHG5 (11737974_s_at) / RFU LRRC4B (11730491_at) / Fold change /veh LRRC4B (11730491_at) / RFU GIMAP4 (11747438_a_at) / Fold change /veh GIMAP4 (11747438_a_at) / RFU KRT8 (11758183_x_at) / Fold change /veh KRT8 (11758183_x_at) / RFU CNN1 (11734310_a_at) / Fold change /veh CNN1 (11734310_a_at) / RFU VPS37D (11726825_at) / Fold change /veh VPS37D (11726825_at) / RFU C10orf10 (11716522_x_at) / Fold change /veh C10orf10 (11716522_x_at) / RFU KIR2DL2 /// KIR2DL4 /// KIR2DL5A /// KIR2DL5B /// KIR2DS1 /// KIR2DS2 /// KIR2DS3 /// KIR2DS4 /// KIR3DL3 /// KIR3DL3 /// KIR3DS1 (11738374_at) / Fold change /veh KIR2DL2 /// KIR2DL4 /// KIR2DL5A /// KIR2DL5B /// KIR2DS1 /// KIR2DS2 /// KIR2DS3 /// KIR2DS4 /// KIR3DL3 /// KIR3DL3 /// KIR3DS1 (11738374_at) / RFU C1QL1 (11718748_at) / Fold change /veh C1QL1 (11718748_at) / RFU TMPRSS4 (11747572_a_at) / Fold change /veh TMPRSS4 (11747572_a_at) / RFU HAMP (11756126_x_at) / Fold change /veh HAMP (11756126_x_at) / RFU RNFT2 (11725882_a_at) / Fold change /veh RNFT2 (11725882_a_at) / RFU NR4A2 (11747474_a_at) / Fold change /veh NR4A2 (11747474_a_at) / RFU ABCC12 (11746883_a_at) / Fold change /veh ABCC12 (11746883_a_at) / RFU TMEM136 (11760407_x_at) / Fold change /veh TMEM136 (11760407_x_at) / RFU CLDN22 /// WWC2 (11732394_at) / Fold change /veh CLDN22 /// WWC2 (11732394_at) / RFU HLA-DPB1 (11760878_x_at) / Fold change /veh HLA-DPB1 (11760878_x_at) / RFU SPINT1 (11716480_a_at) / Fold change /veh SPINT1 (11716480_a_at) / RFU GAP43 (11754022_s_at) / Fold change /veh GAP43 (11754022_s_at) / RFU A4GNT (11735810_at) / Fold change /veh A4GNT (11735810_at) / RFU PRB3 (11715151_x_at) / Fold change /veh PRB3 (11715151_x_at) / RFU TUBB4B (11761932_at) / Fold change /veh TUBB4B (11761932_at) / RFU CAPN14 (11732068_a_at) / Fold change /veh CAPN14 (11732068_a_at) / RFU TMCC2 (11721928_a_at) / Fold change /veh TMCC2 (11721928_a_at) / RFU IRGQ (11745062_a_at) / Fold change /veh IRGQ (11745062_a_at) / RFU FAM174B (11720279_a_at) / Fold change /veh FAM174B (11720279_a_at) / RFU TMPRSS4 (11748680_a_at) / Fold change /veh TMPRSS4 (11748680_a_at) / RFU FAM212B (11763350_a_at) / Fold change /veh FAM212B (11763350_a_at) / RFU PLEKHG5 (11743358_a_at) / Fold change /veh PLEKHG5 (11743358_a_at) / RFU ZSCAN30 (11745921_a_at) / Fold change /veh ZSCAN30 (11745921_a_at) / RFU CMKLR1 (11741424_a_at) / Fold change /veh CMKLR1 (11741424_a_at) / RFU LOC101060620 /// MAPK8IP1 (11723275_at) / Fold change /veh LOC101060620 /// MAPK8IP1 (11723275_at) / RFU SPTSSB (11747773_x_at) / Fold change /veh SPTSSB (11747773_x_at) / RFU PRSS12 (11739890_at) / Fold change /veh PRSS12 (11739890_at) / RFU BIN1 (11741810_x_at) / Fold change /veh BIN1 (11741810_x_at) / RFU WNT11 (11732464_a_at) / Fold change /veh WNT11 (11732464_a_at) / RFU C10orf10 (11716521_a_at) / Fold change /veh C10orf10 (11716521_a_at) / RFU C5orf56 (11738089_at) / Fold change /veh C5orf56 (11738089_at) / RFU CYB561 (11721691_x_at) / Fold change /veh CYB561 (11721691_x_at) / RFU ANKRD19P (11752326_a_at) / Fold change /veh ANKRD19P (11752326_a_at) / RFU OR2T12 /// OR2T33 /// OR2T8 (11738714_s_at) / Fold change /veh OR2T12 /// OR2T33 /// OR2T8 (11738714_s_at) / RFU VCAN (11748164_a_at) / Fold change /veh VCAN (11748164_a_at) / RFU JSRP1 (11732532_at) / Fold change /veh JSRP1 (11732532_at) / RFU KRTAP10-11 (11738290_x_at) / Fold change /veh KRTAP10-11 (11738290_x_at) / RFU MYO3A (11730013_a_at) / Fold change /veh MYO3A (11730013_a_at) / RFU EBF3 (11725865_a_at) / Fold change /veh EBF3 (11725865_a_at) / RFU CAMK2N1 (11719241_x_at) / Fold change /veh CAMK2N1 (11719241_x_at) / RFU C5orf56 (11738088_a_at) / Fold change /veh C5orf56 (11738088_a_at) / RFU OLFML3 (11715873_a_at) / Fold change /veh OLFML3 (11715873_a_at) / RFU LOC100653217 /// NTM (11731650_a_at) / Fold change /veh LOC100653217 /// NTM (11731650_a_at) / RFU MAPK11 (11762145_a_at) / Fold change /veh MAPK11 (11762145_a_at) / RFU FIZ1 (11724087_x_at) / Fold change /veh FIZ1 (11724087_x_at) / RFU OASL (11726364_x_at) / Fold change /veh OASL (11726364_x_at) / RFU SOX15 (11748057_x_at) / Fold change /veh SOX15 (11748057_x_at) / RFU CD79A (11719716_a_at) / Fold change /veh CD79A (11719716_a_at) / RFU HIST1H1D (11736915_at) / Fold change /veh HIST1H1D (11736915_at) / RFU CASKIN2 (11723855_a_at) / Fold change /veh CASKIN2 (11723855_a_at) / RFU LOC730098 (11760151_x_at) / Fold change /veh LOC730098 (11760151_x_at) / RFU OR4N2 (11742367_at) / Fold change /veh OR4N2 (11742367_at) / RFU PRRT2 (11749266_a_at) / Fold change /veh PRRT2 (11749266_a_at) / RFU SNX32 (11753110_a_at) / Fold change /veh SNX32 (11753110_a_at) / RFU CDHR5 (11726645_a_at) / Fold change /veh CDHR5 (11726645_a_at) / RFU RCAN1 (11760418_a_at) / Fold change /veh RCAN1 (11760418_a_at) / RFU FAM167A (11723789_a_at) / Fold change /veh FAM167A (11723789_a_at) / RFU FAM26E (11764081_at) / Fold change /veh FAM26E (11764081_at) / RFU ISYNA1 (11749810_s_at) / Fold change /veh ISYNA1 (11749810_s_at) / RFU ACY1 (11761880_at) / Fold change /veh ACY1 (11761880_at) / RFU 11764098_at / Fold change /veh 11764098_at / RFU SAMD14 (11745864_x_at) / Fold change /veh SAMD14 (11745864_x_at) / RFU NPB (11741838_a_at) / Fold change /veh NPB (11741838_a_at) / RFU TMPRSS6 (11731388_a_at) / Fold change /veh TMPRSS6 (11731388_a_at) / RFU KRTAP10-2 (11738614_at) / Fold change /veh KRTAP10-2 (11738614_at) / RFU ARHGAP8 /// PRR5-ARHGAP8 (11727945_x_at) / Fold change /veh ARHGAP8 /// PRR5-ARHGAP8 (11727945_x_at) / RFU KRTAP5-7 /// NADSYN1 (11734609_at) / Fold change /veh KRTAP5-7 /// NADSYN1 (11734609_at) / RFU RASL12 (11751679_a_at) / Fold change /veh RASL12 (11751679_a_at) / RFU CDKN2B (11736163_a_at) / Fold change /veh CDKN2B (11736163_a_at) / RFU PRF1 (11729649_at) / Fold change /veh PRF1 (11729649_at) / RFU, ZNF638 /// ZNF638-IT1 / Fold change vs veh, ZNF638 /// ZNF638-IT1 / RFU, PANK3 / Fold change vs veh, PANK3 / RFU, SH3YL1 / Fold change vs veh, SH3YL1 / RFU, ZEB2 / Fold change vs veh, ZEB2 / RFU, NRIP1 / Fold change vs veh, NRIP1 / RFU, PTTG1IP / Fold change vs veh, PTTG1IP / RFU, CAPN2 / Fold change vs veh, CAPN2 / RFU, MED14 / Fold change vs veh, MED14 / RFU, SNORA58 / Fold change vs veh, SNORA58 / RFU, C1orf63 / Fold change vs veh, C1orf63 / RFU, LRRFIP1 / Fold change vs veh, LRRFIP1 / RFU, NDUFAF7 / Fold change vs veh, NDUFAF7 / RFU, SLC12A2 / Fold change vs veh, SLC12A2 / RFU, IBTK / Fold change vs veh, IBTK / RFU, ESF1 / Fold change vs veh, ESF1 / Fold change vs veh, TMEM50B / RFU, TAOK1 / Fold change vs veh, TAOK1 / RFU, ACBD3 / Fold change vs veh, ACBD3 / RFU, TMA16 / Fold change vs veh, TMA16 / RFU, RWDD3 / Fold change vs veh, RWDD3 / RFU, BCAT1 / Fold change vs veh, BCAT1 / RFU, EDEM3 / Fold change vs veh, EDEM3 / RFU, TMEM33 / Fold change vs veh, TMEM33 / RFU, WDR75 / Fold change vs veh, WDR75 / RFU, AHCTF1 / Fold change vs veh, AHCTF1 / RFU, TFRC / Fold change vs veh, TFRC / RFU, ZDHHC17 / Fold change vs veh, ZDHHC17 / RFU, NOM1 / Fold change vs veh, NOM1 / RFU, ARL8B / Fold change vs veh, ARL8B / RFU, ZBTB11 / Fold change vs veh, ZBTB11 / RFU, TAMM41 / Fold change vs veh, TAMM41 / RFU, KIAA1704 /// LOC100996395 / Fold change vs veh, KIAA1704 /// LOC100996395 / RFU, ING1 / Fold change vs veh, ING1 / RFU, TRMT61B / Fold change vs veh, TRMT61B / RFU, FUBP3 / Fold change vs veh, FUBP3 / RFU, TP53 / Fold change vs veh, TP53 / RFU, TNKS2 / Fold change vs veh, TNKS2 / RFU, ZFP14 / Fold change vs veh, ZFP14 / RFU, ACTR2 / Fold change vs veh, ACTR2 / RFU, PPP3R1 / Fold change vs veh, PPP3R1 / RFU, PIK3R1 / Fold change vs veh, PIK3R1 / RFU, HNRNPA1 / Fold change vs veh, HNRNPA1 / RFU, RNF170 / Fold change vs veh, RNF170 / RFU, ZNF28 / Fold change vs veh, ZNF28 / RFU, RNGTT / Fold change vs veh, RNGTT / RFU, OGT / Fold change vs veh, OGT / RFU, BRD1 / Fold change vs veh, BRD1 / RFU, MARS / Fold change vs veh, MARS / RFU, ZNF655 / Fold change vs veh, ZNF655 / RFU, FAHD1 / Fold change vs veh, FAHD1 / RFU, BDP1 / Fold change vs veh, BDP1 / RFU, LRRCC1 / Fold change vs veh, LRRCC1 / RFU, ARID1A / Fold change vs veh, ARID1A / RFU, ZNF146 / Fold change vs veh, ZNF146 / RFU, ZNF330 / Fold change vs veh, ZNF330 / RFU, GPN3 / Fold change vs veh, GPN3 / RFU, C9orf123 / Fold change vs veh, C9orf123 / RFU, N4BP2L2 / Fold change vs veh, N4BP2L2 / RFU, ARFIP1 / Fold change vs veh, ARFIP1 / RFU, FAM179B / Fold change vs veh, FAM179B / RFU, BCL10 / Fold change vs veh, BCL10 / RFU, UHRF1BP1L / Fold change vs veh, UHRF1BP1L / RFU, BET1 / Fold change vs veh, BET1 / RFU, CNOT2 / Fold change vs veh, CNOT2 / RFU, ZNF268 / Fold change vs veh, ZNF268 / Fold change vs veh, ZNF507 / RFU, DGCR2 / Fold change vs veh, DGCR2 / RFU, WDSUB1 / Fold change vs veh, WDSUB1 / Fold change vs veh, HSP90B1 /// MIR3652 / RFU, ADSS / Fold change vs veh, ADSS / RFU, GK / Fold change vs veh, GK / RFU, ZNF148 / Fold change vs veh, ZNF148 / RFU, TAF9 / Fold change vs veh, TAF9 / RFU, SLC1A5 / Fold change vs veh, SLC1A5 / RFU, SLMO2 / Fold change vs veh, SLMO2 / RFU, ABCC4 / Fold change vs veh, ABCC4 / RFU, LOC101060439 /// RAP1B / Fold change vs veh, LOC101060439 /// RAP1B / RFU, RFX7 / Fold change vs veh, RFX7 / RFU, GTPBP10 / Fold change vs veh, GTPBP10 / RFU, CNEP1R1 / Fold change vs veh, CNEP1R1 / RFU, BIVM-ERCC5 /// ERCC5 / Fold change vs veh, BIVM-ERCC5 /// ERCC5 / RFU, ILF3 / Fold change vs veh, ILF3 / RFU 11762660_at / Fold change /veh 11762660_at / RFU VCAN (11757783_s_at) / Fold change /veh VCAN (11757783_s_at) / RFU DDX43 (11728927_at) / Fold change /veh DDX43 (11728927_at) / RFU KRT8 (11758188_x_at) / Fold change /veh KRT8 (11758188_x_at) / RFU NKD1 (11759106_at) / Fold change /veh NKD1 (11759106_at) / RFU SRD5A1 (11742802_a_at) / Fold change /veh SRD5A1 (11742802_a_at) / RFU TPSAB1 /// TPSB2 (11721975_s_at) / Fold change /veh TPSAB1 /// TPSB2 (11721975_s_at) / RFU GSTM3 (11746129_a_at) / Fold change /veh GSTM3 (11746129_a_at) / RFU IL23R (11737362_x_at) / Fold change /veh IL23R (11737362_x_at) / RFU TMEM51 (11727254_a_at) / Fold change /veh TMEM51 (11727254_a_at) / RFU PIWIL2 (11732686_x_at) / Fold change /veh PIWIL2 (11732686_x_at) / RFU ORM1 (11744905_x_at) / Fold change /veh ORM1 (11744905_x_at) / RFU CCDC152 (11743942_at) / Fold change /veh CCDC152 (11743942_at) / RFU ECM1 (11717891_a_at) / Fold change /veh ECM1 (11717891_a_at) / RFU IL23R (11748794_a_at) / Fold change /veh IL23R (11748794_a_at) / RFU TNFAIP8L3 (11732012_x_at) / Fold change /veh TNFAIP8L3 (11732012_x_at) / RFU MBOAT4 (11741988_at) / Fold change /veh MBOAT4 (11741988_at) / RFU 11764193_at / Fold change /veh 11764193_at / RFU TMEM53 (11763286_at) / Fold change /veh TMEM53 (11763286_at) / RFU MAGEB2 (11727129_at) / Fold change /veh MAGEB2 (11727129_at) / RFU TMEM200A (11744735_a_at) / Fold change /veh TMEM200A (11744735_a_at) / RFU CCDC152 (11751479_a_at) / Fold change /veh CCDC152 (11751479_a_at) / RFU FAM211A (11726209_a_at) / Fold change /veh FAM211A (11726209_a_at) / RFU RGS16 (11746705_a_at) / Fold change /veh RGS16 (11746705_a_at) / RFU VCAN (11755009_s_at) / Fold change /veh VCAN (11755009_s_at) / RFU RHOB (11743442_s_at) / Fold change /veh RHOB (11743442_s_at) / RFU RGS16 (11720943_a_at) / Fold change /veh RGS16 (11720943_a_at) / RFU RGS16 (11720944_at) / Fold change /veh RGS16 (11720944_at) / RFU, VPS4B / Fold change vs veh, VPS4B / RFU, CREB1 / Fold change vs veh, CREB1 / RFU, DNAJC13 / Fold change vs veh, DNAJC13 / RFU, GNAQ / Fold change vs veh, GNAQ / RFU, CDK5R1 / Fold change vs veh, CDK5R1 / RFU, ZRANB3 / Fold change vs veh, ZRANB3 / RFU, CUL4A / Fold change vs veh, CUL4A / RFU, CCNY / Fold change vs veh, CCNY / RFU, UFL1 / Fold change vs veh, UFL1 / RFU, COG3 / Fold change vs veh, COG3 / RFU, DIAPH2 / Fold change vs veh, DIAPH2 / RFU, SKA2 / Fold change vs veh, SKA2 / RFU, AFF3 / Fold change vs veh, AFF3 / RFU, LMF1 / Fold change vs veh, LMF1 / RFU, IPO11 / Fold change vs veh, IPO11 / RFU, DFFB / Fold change vs veh, DFFB / RFU, FOXP1 / Fold change vs veh, FOXP1 / RFU, CARD8 / Fold change vs veh, CARD8 / RFU, STRN3 / Fold change vs veh, STRN3 / RFU, ADK / Fold change vs veh, ADK / RFU, RASSF2 / Fold change vs veh, RASSF2 / RFU, WIPF1 / Fold change vs veh, WIPF1 / RFU, LARP1B / Fold change vs veh, LARP1B / RFU, RASA1 / Fold change vs veh, RASA1 / RFU, RB1 / Fold change vs veh, RB1 / RFU, PPFIA1 / Fold change vs veh, PPFIA1 / RFU, MAT2A / Fold change vs veh, MAT2A / RFU, CCT5 / Fold change vs veh, CCT5 / RFU, WDR92 / Fold change vs veh, WDR92 / RFU, CUX1 / Fold change vs veh, CUX1 / RFU, TTC7A / Fold change vs veh, TTC7A / RFU, TMEM135 / Fold change vs veh, TMEM135 / RFU, DEPTOR / Fold change vs veh, DEPTOR / RFU, CPM / Fold change vs veh, CPM / RFU, DNAJB6 / Fold change vs veh, DNAJB6 / RFU, CACNA2D3 / Fold change vs veh, CACNA2D3 / RFU, DTX4 / Fold change vs veh, DTX4 / RFU, TFCP2 / Fold change vs veh, TFCP2 / RFU, GMCL1 /// GMCL1P1 / Fold change vs veh, GMCL1 /// GMCL1P1 / RFU, AEBP2 / Fold change vs veh, AEBP2 / RFU, SNHG1 /// SNORD22 /// SNORD25 /// SNORD26 /// SNORD27 /// SNORD28 /// SNORD29 /// SNORD31 / Fold change vs veh, SNHG1 /// SNORD22 /// SNORD25 /// SNORD26 /// SNORD27 /// SNORD28 /// SNORD29 /// SNORD31 / Fold change (Aza/veh), C12orf56 (ProbeSet 11735607_a_at) / Fold change (ACY-1035/veh), C12orf56 (ProbeSet 11735607_a_at) / Fold change (Aza/veh), FGFR1OP (ProbeSet 11751329_s_at) / Fold change (ACY-1035/veh), FGFR1OP (ProbeSet 11751329_s_at) / Fold change (Aza/veh), VPS36 (ProbeSet 11739960_a_at) / Fold change (ACY-1035/veh), VPS36 (ProbeSet 11739960_a_at) / RFU SYPL1 (11715823_x_at) / Fold change /veh SYPL1 (11715823_x_at) / RFU IGFBP7 (11715501_s_at) / Fold change /veh IGFBP7 (11715501_s_at) / RFU REEP3 (11722064_at) / Fold change /veh REEP3 (11722064_at) / RFU IGLL1 (11728026_x_at) / Fold change /veh IGLL1 (11728026_x_at): dose or concentration left out as unconfirmed
# Conditions: MV-4-11 cells, 48 hours
compound,measurement,value
Nc1ncn([C@@H]2O[C@H](CO)[C@@H](O)[C@H]2O)c(=O)n1 [azacitidine],RFU ARHGAP8 /// PRR5-ARHGAP8 (11727945_x_at),97.01 RFU
